How the values were obtained:
redroot pigweed [1] = test: Test Example 4: herbicidal effect by soil treatment (Table 19, symbol N); assay type: in vivo, redroot pigweed (Amaranthus retroflexus); settings: amount of applied herbicide 320 g/ha
Outline: (§1)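 Scoring uses the grading scale of an earlier test, three weeks post-application. Treatment consists of spraying a diluted emulsion formulation across the surface of sterilized diluvial soil in which seeds are buried near 1.5 cm deep; boxes are kept in a greenhouse between 25° C. and 30° C.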

persian speedwell [2] = test: Test Example 4: herbicidal effect by soil treatment (Table 19, symbol R); assay type: in vivo, Persian speedwell (Veronica persica); settings: amount of applied herbicide 320 g/ha
Outline: as §1

persian speedwell [3] = test: Test Example 5: herbicidal effect by foliage application, plastic box (Table 20, symbol R); assay type: in vivo, Persian speedwell (Veronica persica); settings: foliage application, 320 g/ha, evaluated 3 weeks after application
Outline: (§2)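 Post-emergence foliar test in sterilized diluvial soil. Compound applied as water-diluted emulsion at a predetermined rate to 14-day-old plants; evaluation at three weeks.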

Italian ryegrass [4] = test: Test Example 5: herbicidal effect by foliage application, plastic box (Table 20, symbol K); assay type: in vivo, Italian ryegrass (Lolium multiflorum); settings: foliage application, 320 g/ha, evaluated 3 weeks after application
Outline: as §2

Italian ryegrass [5] = test: Test Example 4: herbicidal effect by soil treatment (Table 19, symbol K); assay type: in vivo, Italian ryegrass (Lolium multiflorum); settings: amount of applied herbicide 320 g/ha
Outline: as §1

Chinese sprangletop = test: Test Example 3: herbicidal effect by foliage application, Wagner pot (Table 18, symbol D); assay type: in vivo, chinese sprangletop (Leptochloa chinensis); settings: amount of applied herbicide 320 g/ha
Outline: (§3)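 Plants were sown in alluvial soil held under 0.1–0.5 cm standing water and grown 14 days in a greenhouse at 25–30 °C. An emulsifiable formulation, water-diluted to the set dose, was then sprayed onto the foliage, and effects were scored three weeks later using previously defined criteria.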

oval-leafed pondweed = test: Test Example 1: herbicidal activity, application before weed generation under submerged conditions (Table 16, symbol C); assay type: in vivo, oval-leafed pondweed (Monochoria vaginalis); settings: amount of applied herbicide 320 g/ha
Outline: (§4)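 Submerged Wagner pots (alluvial soil, 4 cm water) sown with weed seeds and planted with 2.5-leaf rice seedlings; emulsifiable concentrate diluted in water applied to water surface on sowing day. Held in greenhouse at 25-30 °C; injury scored 0-5 by herbicidal rate after three weeks.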

rice flat sedge = test: Test Example 3: herbicidal effect by foliage application, Wagner pot (Table 18, symbol E); assay type: in vivo, rice flat sedge (Cyperus iria); settings: amount of applied herbicide 320 g/ha
Outline: as §3

barnyard grass [6] = test: Test Example 4: herbicidal effect by soil treatment (Table 19, symbol H); assay type: in vivo, barnyard grass (Echinochloa crus-galli); settings: amount of applied herbicide 320 g/ha
Outline: as §1

velvetleaf [7] = test: Test Example 4: herbicidal effect by soil treatment (Table 19, symbol M); assay type: in vivo, velvetleaf (Abutilon theophrasti); settings: amount of applied herbicide 320 g/ha
Outline: as §1

barnyard grass [8] = test: Test Example 3: herbicidal effect by foliage application, Wagner pot (Table 18, symbol H); assay type: in vivo, barnyard grass (Echinochloa crus-galli); settings: amount of applied herbicide 320 g/ha
Outline: as §3

false cleavers [9] = test: Test Example 4: herbicidal effect by soil treatment (Table 19, symbol Q); assay type: in vivo, false cleavers (Galium spurium); settings: amount of applied herbicide 320 g/ha
Outline: as §1

late watergrass = test: Test Example 1: herbicidal activity, application before weed generation under submerged conditions (Table 16, symbol A); assay type: in vivo, late watergrass (Echinochloa oryzicola); settings: amount of applied herbicide 320 g/ha
Outline: as §4

chickweed [10] = test: Test Example 5: herbicidal effect by foliage application, plastic box (Table 20, symbol P); assay type: in vivo, common chickweed (Stellaria media); settings: foliage application, 320 g/ha, evaluated 3 weeks after application
Outline: as §2

Japanese bulrush = test: Test Example 1: herbicidal activity, application before weed generation under submerged conditions (Table 16, symbol B); assay type: in vivo, Japanese bulrush (Schoenoplectus juncoides); settings: amount of applied herbicide 320 g/ha
Outline: as §4

southern crabgrass [11] = test: Test Example 5: herbicidal effect by foliage application, plastic box (Table 20, symbol F); assay type: in vivo, southern crabgrass (Digitaria ciliaris); settings: foliage application, 320 g/ha, evaluated 3 weeks after application
Outline: as §2

windgrass [12] = test: Test Example 5: herbicidal effect by foliage application, plastic box (Table 20, symbol L); assay type: in vivo, windgrass (Apera spica-venti); settings: foliage application, 320 g/ha, evaluated 3 weeks after application
Outline: as §2

green foxtail [13] = test: Test Example 4: herbicidal effect by soil treatment (Table 19, symbol G); assay type: in vivo, green foxtail (Setaria viridis); settings: amount of applied herbicide 320 g/ha
Outline: as §1

lambsquarters [14] = test: Test Example 5: herbicidal effect by foliage application, plastic box (Table 20, symbol O); assay type: in vivo, lambsquarters (Chenopodium album); settings: foliage application, 320 g/ha, evaluated 3 weeks after application
Outline: as §2

velvetleaf [15] = test: Test Example 5: herbicidal effect by foliage application, plastic box (Table 20, symbol M); assay type: in vivo, velvetleaf (Abutilon theophrasti); settings: foliage application, 320 g/ha, evaluated 3 weeks after application
Outline: as §2

chickweed [16] = test: Test Example 4: herbicidal effect by soil treatment (Table 19, symbol P); assay type: in vivo, common chickweed (Stellaria media); settings: amount of applied herbicide 320 g/ha
Outline: as §1

wild oat [17] = test: Test Example 5: herbicidal effect by foliage application, plastic box (Table 20, symbol I); assay type: in vivo, wild oat (Avena fatua); settings: foliage application, 320 g/ha, evaluated 3 weeks after application
Outline: as §2

wild oat [18] = test: Test Example 4: herbicidal effect by soil treatment (Table 19, symbol I); assay type: in vivo, wild oat (Avena fatua); settings: amount of applied herbicide 320 g/ha
Outline: as §1

barnyard grass [19] = test: Test Example 5: herbicidal effect by foliage application, plastic box (Table 20, symbol H); assay type: in vivo, barnyard grass (Echinochloa crus-galli); settings: foliage application, 320 g/ha, evaluated 3 weeks after application
Outline: as §2

windgrass [20] = test: Test Example 4: herbicidal effect by soil treatment (Table 19, symbol L); assay type: in vivo, windgrass (Apera spica-venti); settings: amount of applied herbicide 320 g/ha
Outline: as §1

blackgrass [21] = test: Test Example 5: herbicidal effect by foliage application, plastic box (Table 20, symbol J); assay type: in vivo, blackgrass (Alopecurus myosuroides); settings: foliage application, 320 g/ha, evaluated 3 weeks after application
Outline: as §2

false cleavers [22] = test: Test Example 5: herbicidal effect by foliage application, plastic box (Table 20, symbol Q); assay type: in vivo, false cleavers (Galium spurium); settings: foliage application, 320 g/ha, evaluated 3 weeks after application
Outline: as §2

redroot pigweed [23] = test: Test Example 5: herbicidal effect by foliage application, plastic box (Table 20, symbol N); assay type: in vivo, redroot pigweed (Amaranthus retroflexus); settings: foliage application, 320 g/ha, evaluated 3 weeks after application
Outline: as §2

blackgrass [24] = test: Test Example 4: herbicidal effect by soil treatment (Table 19, symbol J); assay type: in vivo, blackgrass (Alopecurus myosuroides); settings: amount of applied herbicide 320 g/ha
Outline: as §1

lambsquarters [25] = test: Test Example 4: herbicidal effect by soil treatment (Table 19, symbol O); assay type: in vivo, lambsquarters (Chenopodium album); settings: amount of applied herbicide 320 g/ha
Outline: as §1

southern crabgrass [26] = test: Test Example 4: herbicidal effect by soil treatment (Table 19, symbol F); assay type: in vivo, southern crabgrass (Digitaria ciliaris); settings: amount of applied herbicide 320 g/ha
Outline: as §1

green foxtail [27] = test: Test Example 5: herbicidal effect by foliage application, plastic box (Table 20, symbol G); assay type: in vivo, green foxtail (Setaria viridis); settings: foliage application, 320 g/ha, evaluated 3 weeks after application
Outline: as §2

COc1ccc2c(-c3c(O)c(C)nn(C)c3=O)c(-c3ccccc3OC)oc2c1 [10-001]
N: redroot pigweed, herbicidal effect grade (redroot pigweed [1]): 0 (Herbicidal rate of 5% or less (almost no effect))
R: persian speedwell, herbicidal effect grade (persian speedwell [2]): 5 (Herbicidal rate of 90% or more (almost completely withered))
R (persian speedwell) herbicidal effect grade (persian speedwell [3]): 5 (Herbicidal rate of 90% or more (almost completely withered))
K (Italian ryegrass) herbicidal effect grade (Italian ryegrass [4]): 0 (Herbicidal rate of 5% or less (almost no effect))
K: Italian ryegrass, herbicidal effect grade (Italian ryegrass [5]): 0 (Herbicidal rate of 5% or less (almost no effect))
Herbicidal effect on D (Chinese sprangletop), foliage application (Chinese sprangletop): 0 (Herbicidal rate of 5% or less (almost no effect))
Herbicidal effect, C: oval-leafed pondweed (oval-leafed pondweed): 3 (Herbicidal rate of 40% or more and less than 70%)
Herbicidal effect on E (rice flat sedge), foliage application (rice flat sedge): 2 (Herbicidal rate of 20% or more and less than 40%)
H: barnyard grass, herbicidal effect grade (barnyard grass [6]): 0 (Herbicidal rate of 5% or less (almost no effect))
M: velvetleaf, herbicidal effect grade (velvetleaf [7]): 0 (Herbicidal rate of 5% or less (almost no effect))
Herbicidal effect on H (barnyard grass), foliage application (barnyard grass [8]): 3 (Herbicidal rate of 40% or more and less than 70%)
Q: false cleavers, herbicidal effect grade (false cleavers [9]): 0 (Herbicidal rate of 5% or less (almost no effect))
Herbicidal effect, A: late watergrass (late watergrass): 0 (Herbicidal rate of 5% or less (almost no effect))
P (chickweed) herbicidal effect grade (chickweed [10]): 5 (Herbicidal rate of 90% or more (almost completely withered))
Herbicidal effect, B: Japanese bulrush (Japanese bulrush): 0 (Herbicidal rate of 5% or less (almost no effect))
F (southern crabgrass) herbicidal effect grade (southern crabgrass [11]): 2 (Herbicidal rate of 20% or more and less than 40%)
L (windgrass) herbicidal effect grade (windgrass [12]): 3 (Herbicidal rate of 40% or more and less than 70%)
G: green foxtail, herbicidal effect grade (green foxtail [13]): 0 (Herbicidal rate of 5% or less (almost no effect))
O (lambsquarters) herbicidal effect grade (lambsquarters [14]): 4 (Herbicidal rate of 70% or more and less than 90%)
M (velvetleaf) herbicidal effect grade (velvetleaf [15]): 3 (Herbicidal rate of 40% or more and less than 70%)
P: chickweed, herbicidal effect grade (chickweed [16]): 0 (Herbicidal rate of 5% or less (almost no effect))
I (wild oat) herbicidal effect grade (wild oat [17]): 0 (Herbicidal rate of 5% or less (almost no effect))
I: wild oat, herbicidal effect grade (wild oat [18]): 0 (Herbicidal rate of 5% or less (almost no effect))
H (barnyard grass) herbicidal effect grade (barnyard grass [19]): 3 (Herbicidal rate of 40% or more and less than 70%)
L: windgrass, herbicidal effect grade (windgrass [20]): 0 (Herbicidal rate of 5% or less (almost no effect))
J (blackgrass) herbicidal effect grade (blackgrass [21]): 0 (Herbicidal rate of 5% or less (almost no effect))
Q (false cleavers) herbicidal effect grade (false cleavers [22]): 4 (Herbicidal rate of 70% or more and less than 90%)
N (redroot pigweed) herbicidal effect grade (redroot pigweed [23]): 3 (Herbicidal rate of 40% or more and less than 70%)
J: blackgrass, herbicidal effect grade (blackgrass [24]): 0 (Herbicidal rate of 5% or less (almost no effect))
O: lambsquarters, herbicidal effect grade (lambsquarters [25]): 0 (Herbicidal rate of 5% or less (almost no effect))
F: southern crabgrass, herbicidal effect grade (southern crabgrass [26]): 0 (Herbicidal rate of 5% or less (almost no effect))
G (green foxtail) herbicidal effect grade (green foxtail [27]): 3 (Herbicidal rate of 40% or more and less than 70%)

— patent publication US20230085307A1, “PYRIDAZINONE COMPOUND AND HERBICIDE” (NISSAN CHEMICAL CORPORATION, priority 2019, published 2023)
